# Where “and” joins values, the source holds several entries; their conditions need not be identical. Identical values can stand only once.
# What was measured:
# [1] = Ex vivo biodistribution in naïve CBA/Carl mice; conditions: 1 h p.i., individual animals
# Protocol: (§1) Dynamic PET/CT images were acquired following an intravenous bolus administration of [^18F]-olaparib. Biodistribution studies, where selected tissues were harvested, were performed 1 h post injection. Some animals were also administered an excess of cold, unlabelled olaparib for evaluating the specificity of tumour uptake. EF5, a hypoxia-selective marker, was injected 2 h before culling of the animal. Digital autoradiography was performed on tumour sections. Image analysis was performed using PMOD.
# (§2) Dynamic PET/CT images were acquired using a VECTor ^4CT integrated PET/CT system. Mice were anaesthetised by 4% isoflurane gas (0.5 L/min O2) and placed on a custom-built imaging cradle in a prone position. Animals mice were intravenously injected with [^18F]-olaparib or (3-5 MBq, 8-11 GBq/μmol, through a tail vein catheter, and dynamic imaging was performed over 45-60 min after radiolabelled compound administration. PET acquisition (150 s per frame, using list mode acquisition) using an ultra-high resolution rat/mouse 1.8 mm collimator, followed by a cone-beam CT scan (55 kV, 0.19 mA) for anatomical reference and attenuation correction. Anaesthesia was maintained at 2.5% isoflurane throughout the duration of the image acquisition. PET images were reconstructed using U-SPECT-Rec3.22 software (MILabs, Utrecht, The Netherlands), applying a pixel-based algorithm with 8 subsets, 6 iterations and 0.8 mm voxel size for ^18F (energy window settings 477.9-584.1 keV).
# (§3) After PET/CT image acquisition, animals were euthanized by cervical dislocation and selected organs, tissues and blood were removed. The amount of radioactivity in each organ was measured using a 2480 WIZARD^2 gamma counter (PerkinElmer). Counts per minute were converted into MBq using a calibration curve generated from known standards. Values were decay-corrected to the time of injection, and the percentage of the injected dose per gram (% ID/g) of each tissue was calculated.
# Capan-1 xenograft = test: Ex vivo biodistribution in Capan-1 xenograft bearing mice; conditions: for Ex vivo biodistribution Bone / Ex vivo biodistribution Kidney / Ex vivo biodistribution Large intestine / Ex vivo biodistribution Liver / Ex vivo biodistribution Muscle / Ex vivo biodistribution Pancreas / Ex vivo biodistribution Skin / Ex vivo biodistribution Small intestine / Ex vivo biodistribution Spleen / Ex vivo biodistribution Stomach: Capan-1 xenograft mice, 1 h p.i., individual animals; for tumour uptake (group mean): Capan-1 xenografts
# Protocol: All animal procedures were performed in accordance with the UK Animals (Scientific Procedures) Act 1986 and with local ethical committee approval. Animals were housed in IVC cages in sex-matched groups up to 5 per cage, in an artificial day-night cycle facility, with ad libitum access to food and water. Tumour xenografts or allografts were generated by subcutaneous injection of PANC-1 or Capan-1 cell suspensions in the hind flank of balb/c nu/nu animals. CaNT xenografts were generated by harvesting CaNT tumours from donor animals, and injecting a tumour homogenate subcutaneously in the flank of wild type CBA/Carl mice. Tumours were irradiated (10 Gy, 2 Gy/min) using a 300 kV X-ray device.
# as §1
# Cells were harvested using trypsin, washed twice using PBS, and reconstituted in DMEM. Panc-1 or Capan-1 xenograft tumours were established in the right hind flank of female NOD/SCID mice (Charles River, UK) by subcutaneous injection of 1×10^6 cells in PBS:matrigel (150 μL). Tumour volumes (V) were calculated after calliper measurement using the following equation: V=(a^2×b)/2, where a is the width of the tumour and b the length (small and large diameters, respectively). The individual relative tumour volume (RTV) was defined as Vt/Vo, where Vt is the volume at a given time and Vo at the start of treatment. Animals were entered in in vivo studies when their tumour was at least 200 mm^3.
# Two hours prior to PET/CT imaging, animals were exposed to X-irradiation of the tumour (10 Gy or sham) (see schedule in FIG. 13). Radiation was delivered using a Gulmay 320 kV X-irradiator; 2.0 Gy/min. Anaesthesia was maintained at 2.5% isoflurane throughout the duration of the irradiation, and animals were allowed to recover. To study the relationship of PARP1 expression, ^18F-olaparib uptake and hypoxia, animals were administered 0.6 μg in 200 μL (0.9% saline) intraperitoneally, one hour prior to PET/CT imaging. Naïve CBA/Carl mice, not bearing tumours, were not irradiated, nor was EF5 administered.
# as §2, §3
# [2] = Dynamic PET blood clearance in naïve CBA/Carl mice; format: in vivo; conditions: i.v. 3 MBq
# [3] = system: U87MG and U251MG xenografts; test: 18F-olaparib biodistribution in U87MG and U251MG tumour xenograft mouse models; format: in vivo, Balb/c nude mice; conditions: both U87MG and U251MG tumours, 60-120 min p.i.
# Protocol: U87MG and U251MG xenografts were generated in Balb/c nude mice. The xenograft models were administered various doses (0.5, 1.0, 4.0, and 8.0 μg) of ^18F-olaparib by tail vein injection. At 60-120 min post-injection, mice were sacrificed and organs were collected for biodistribution; see FIGS. 27(a) and (b), and FIG. 28(a). […] We predicted that the uptake for the U251MG xenografts would be greater, but in vivo there is no significant difference between the % ID/g for the U251MG or U87MG xenograft tumours.
# A 20-fold excess of cold olaparib was injected via tail vein 60 m prior to 1 μg of ^18F-olaparib via tail vein. The mice were sacrificed at 60-120 min post-injection and organs were harvested.
structure (smiles),measurement,setting,value
O=C(c1cc(Cc2n[nH]c(=O)c3ccccc23)ccc1[18F])N1CCN(C(=O)C2CC2)CC1 [[^18F]olaparib],Ex vivo biodistribution Blood,[1],0.11 % ID/g (2×) and 0.14 % ID/g
same,Ex vivo biodistribution Fat,[1],0.05 % ID/g and 0.03 % ID/g and 0.26 % ID/g
same,Ex vivo biodistribution Heart,[1],0.19 % ID/g and 0.17 % ID/g and 0.34 % ID/g
same,Ex vivo biodistribution Kidney,[1],0.59 % ID/g and 0.60 % ID/g and 1.01 % ID/g
same,Ex vivo biodistribution Large intestine,[1],0.92 % ID/g and 1.64 % ID/g and 2.99 % ID/g
same,Ex vivo biodistribution Liver,[1],2.55 % ID/g and 4.02 % ID/g and 5.27 % ID/g
same,Ex vivo biodistribution Lung,[1],0.29 % ID/g and 0.19 % ID/g and 0.34 % ID/g
same,Ex vivo biodistribution Muscle,[1],0.20 % ID/g and 0.14 % ID/g and 0.34 % ID/g
same,Ex vivo biodistribution Pancreas,[1],0.91 % ID/g and 0.70 % ID/g and 1.30 % ID/g
same,Ex vivo biodistribution Skin,[1],0.16 % ID/g and 0.10 % ID/g and 0.27 % ID/g
same,Ex vivo biodistribution Small intestine,[1],7.75 % ID/g and 10.33 % ID/g and 17.40 % ID/g
same,Ex vivo biodistribution Spleen,[1],2.09 % ID/g and 1.91 % ID/g and 3.68 % ID/g
same,Ex vivo biodistribution Stomach,[1],0.46 % ID/g and 0.26 % ID/g and 0.58 % ID/g
same,Ex vivo biodistribution Bone,Capan-1 xenograft; + IR (10 Gy),0.31 % ID/g and 0.16 % ID/g and 0.19 % ID/g
same,Ex vivo biodistribution Kidney,Capan-1 xenograft; + IR (10 Gy),4.66 % ID/g and 1.03 % ID/g and 3.67 % ID/g
same,Ex vivo biodistribution Large intestine,Capan-1 xenograft; + IR (10 Gy),5.21 % ID/g and 3.30 % ID/g and 5.86 % ID/g
same,Ex vivo biodistribution Liver,Capan-1 xenograft; + IR (10 Gy),9.16 % ID/g and 5.93 % ID/g and 6.67 % ID/g
same,Ex vivo biodistribution Muscle,Capan-1 xenograft; + IR (10 Gy),0.63 % ID/g and 0.29 % ID/g and 0.48 % ID/g
same,Ex vivo biodistribution Pancreas,Capan-1 xenograft; + IR (10 Gy),1.89 % ID/g and 1.59 % ID/g and 1.84 % ID/g
same,Ex vivo biodistribution Skin,Capan-1 xenograft; + IR (10 Gy),0.67 % ID/g and 0.23 % ID/g and 0.33 % ID/g
same,Ex vivo biodistribution Small intestine,Capan-1 xenograft; + IR (10 Gy),15.58 % ID/g and 9.80 % ID/g and 19.97 % ID/g
same,Ex vivo biodistribution Spleen,Capan-1 xenograft; + IR (10 Gy),0.77 % ID/g and 0.73 % ID/g and 0.82 % ID/g
same,Ex vivo biodistribution Stomach,Capan-1 xenograft; + IR (10 Gy),0.38 % ID/g and 0.36 % ID/g and 0.64 % ID/g
same,Ex vivo biodistribution Bone,Capan-1 xenograft; + block (excess cold olaparib),2.17 % ID/g and 0.47 % ID/g and 1.27 % ID/g
same,Ex vivo biodistribution Kidney,Capan-1 xenograft; + block (excess cold olaparib),4.16 % ID/g and 1.26 % ID/g and 3.32 % ID/g
same,Ex vivo biodistribution Large intestine,Capan-1 xenograft; + block (excess cold olaparib),5.00 % ID/g and 2.91 % ID/g and 4.06 % ID/g
same,Ex vivo biodistribution Liver,Capan-1 xenograft; + block (excess cold olaparib),9.79 % ID/g and 3.62 % ID/g and 6.88 % ID/g
same,Ex vivo biodistribution Muscle,Capan-1 xenograft; + block (excess cold olaparib),0.88 % ID/g and 0.28 % ID/g and 0.65 % ID/g
same,Ex vivo biodistribution Pancreas,Capan-1 xenograft; + block (excess cold olaparib),10.22 % ID/g and 4.56 % ID/g and 10.82 % ID/g
same,Ex vivo biodistribution Skin,Capan-1 xenograft; + block (excess cold olaparib),1.16 % ID/g
same,Ex vivo biodistribution Small intestine,Capan-1 xenograft; + block (excess cold olaparib),46.04 % ID/g and 0.45 % ID/g and 11.70 % ID/g
same,Ex vivo biodistribution Spleen,Capan-1 xenograft; + block (excess cold olaparib),6.43 % ID/g and 2.80 % ID/g and 7.93 % ID/g
same,Ex vivo biodistribution Stomach,Capan-1 xenograft; + block (excess cold olaparib),0.94 % ID/g and 0.30 % ID/g and 0.49 % ID/g
same,Ex vivo biodistribution Bone,Capan-1 xenograft; tracer alone,1.46 % ID/g and 0.98 % ID/g and 1.26 % ID/g and 3.08 % ID/g
same,Ex vivo biodistribution Kidney,Capan-1 xenograft; tracer alone,4.32 % ID/g and 2.05 % ID/g and 4.91 % ID/g and 5.22 % ID/g
same,Ex vivo biodistribution Large intestine,Capan-1 xenograft; tracer alone,4.99 % ID/g and 4.50 % ID/g and 4.14 % ID/g and 8.14 % ID/g
same,Ex vivo biodistribution Liver,Capan-1 xenograft; tracer alone,11.78 % ID/g and 5.79 % ID/g and 10.32 % ID/g and 22.63 % ID/g
same,Ex vivo biodistribution Muscle,Capan-1 xenograft; tracer alone,0.65 % ID/g and 0.45 % ID/g and 0.63 % ID/g and 1.44 % ID/g
same,Ex vivo biodistribution Pancreas,Capan-1 xenograft; tracer alone,9.32 % ID/g and 8.12 % ID/g and 7.87 % ID/g and 13.16 % ID/g
same,Ex vivo biodistribution Skin,Capan-1 xenograft; tracer alone,0.02 % ID/g and 0.55 % ID/g and 0.77 % ID/g and 1.54 % ID/g
same,Ex vivo biodistribution Small intestine,Capan-1 xenograft; tracer alone,12.27 % ID/g and 17.29 % ID/g and 11.58 % ID/g and 13.70 % ID/g
same,Ex vivo biodistribution Spleen,Capan-1 xenograft; tracer alone,9.84 % ID/g and 6.13 % ID/g and 8.40 % ID/g and 15.10 % ID/g
same,Ex vivo biodistribution Stomach,Capan-1 xenograft; tracer alone,1.55 % ID/g and 0.63 % ID/g and 1.14 % ID/g and 3.42 % ID/g
same,tumour uptake (group mean),Capan-1 xenograft; excess cold olaparib,1.00±0.17
same,tumour uptake (group mean),Capan-1 xenograft; tracer alone,2.59±0.32 % ID/g
same,clearance pattern,[2]; dynamic PET,hepatobilliary
same,weighted blood half-life,[2],19.3 min
same,blood clearance fast half-life,"[2]; biphasic fit, fast phase (44%)",2.8 min
same,blood clearance slow half-life,"[2]; biphasic fit, slow phase (56%)",32.3 min
same,decrease of tumour % ID/g at 8.0 μg compared to 1.0 μg tracer,[3],> 50%
